Among the data in PubChem BioAssay (NCI) are TGI and GI50 values, retold here.

SMILES strings stand for the structures.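 A five-concentration, 48-hour dose response in 96-well plates underlies each endpoint, interpolated linearly between surrounding concentrations. GI50 marks 50% less growth. TGI is the concentration that stops growth completely.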

The test system of the first assay is KM12 colon. Put plainly: inhibition of tumour cell growth, NCI panel, 48 h.
On to `CCC1=CCN(c2cc(C)ccn2)OC1c1ccc(OC)cc1` (configuration not stated), for which the TGI was more than 100 µM.

The molecule `CC(=O)Oc1c(C)c(-c2ccccc2)c(C)c(-c2ccccc2)c1C(=S)c1ccccc1` returned a TGI of more than 100 µM. In turn, `N#CCC(=O)N/N=C1/C(=O)N(c2ccc(Cl)cc2)C(=O)C(=O)C1c1nc2ccccc2s1` (configuration not stated) returned a TGI of more than 100 µM.

For the molecule `CCCCCCCCCCCC(=O)OCCOCCOCCOCCOCCOC(=O)CCCCCCCCCCC`, the TGI is more than 100 µM. Still for that read-out and setting: as for `COc1ccc(C=O)cc1O[Si](C)(C)C(C)(C)C`, the figure is more than 100 µM; as for `CC1(O)C(C)(O)C2(C)O[Te]3(OC12C)OC1(C)C(C)(O)C(C)(O)C1(C)O3` (configuration not stated), more than 100 µM. The same measure, in the same setting: as for `O=C1COc2cc(NC(=S)Nc3ccccc3)ccc2N1`, the figure is more than 100 µM. As for `O=S(=O)(C1=CC(S(=O)(=O)c2ccccc2)CN(Cc2ccccc2)C1c1cccc2ccccc12)c1ccccc1` (configuration not stated), the TGI is more than 69 µM. As for `O=C1C=C(Nc2ccccc2C(=O)CC(=O)C(=O)Nc2cccc([N+](=O)[O-])c2)c2ccccc2C1=O`, the TGI was more than 100 µM. With `O=C(Nc1ccc(Cl)cc1)C1C(=O)C(=O)N(c2ccc(Cl)cc2)C1=O` (configuration not stated), the TGI is more than 100 µM. With `CCC[CH2][Sn]([CH2]CCC)([O]C(=O)CN)[O]C(=O)CN`, the GI50 was more than 100 µM and the TGI is more than 100 µM.

As to `COc1ccc2c(c1)C(=O)CCc1cc(OC)c(OC)c(OC)c1-2`, the GI50 was less than 0.01 µM. With `O=C(Nc1ccc(C(F)(F)F)cc1[N+](=O)[O-])C(=O)C1NC(=S)NC1=O` (configuration not stated), the TGI was more than 100 µM. The molecule `COc1cc(NCC(C#N)C#N)ccc1N=Nc1ccc(Cl)cc1` came in with a TGI of 33.4 µM. In turn, `CC(=O)c1ccc(NC(=O)/C(CC(=O)c2sc(-c3cccnc3)nc2C)=N/NC(N)=O)cc1` registered a TGI of more than 100 µM.

Regarding `Cc1ccc(S(=O)(=O)OC2CC=CC2)cc1`, the TGI was more than 100 µM. In the case of `COc1ccc2c(c1)OC1=C(C(=O)OC1)C2c1cc(OC)c2c(c1)OCCO2` (configuration not stated), the GI50 is 0.0464 µM and the TGI was more than 100 µM.

As to `C=CC[P@]1(=O)O[C@H](c2ccccc2)[C@H](C)N1C`, the TGI was more than 100 µM.

The molecule `O=C1N/C(=C\[N+](=O)[O-])c2ccccc21` yielded a TGI of more than 100 µM. Consider `CCN(CC)CCNC(Cc1ccccc1)c1ccc(OCc2ccccc2)cc1` (configuration not stated), for which the GI50 is 5.22 µM and the TGI amounted to 18.2 µM. `COC(=O)C(=O)CC(=O)CCn1[nH]c(=O)c(Cl)c(Cl)c1=O` registered a TGI of more than 100 µM. In turn, `CCOC1C(Br)Cn2c(=O)c3cc4ccccc4cc3c(=O)n2C1C` (configuration not stated) had a TGI of more than 100 µM. On the same count and under the same terms, as for `COc1ccc(NC(=O)CC/C(CC(=O)c2ccco2)=N/NC(=O)C(N)=O)cc1`, the figure is more than 100 µM; as for `NC(CCCC(N)P(=O)(O)O)P(=O)(O)O` (configuration not stated), more than 100 µM. Consider `CCOC(=O)[CH-]C(=O)C12CC3CC(CC(C3)C1)C2.CCOC(=O)[CH-]C(=O)C12CC3CC(CC(C3)C1)C2.CC[O-].CC[O-].[Ti+4]`, for which the GI50 was more than 100 µM and the TGI was more than 100 µM. For the molecule `CC(=O)C1C(c2ccccc2)C2(C)OC(=O)C(C#N)C12C` (configuration not stated), the TGI was more than 100 µM. As to `C[C@]12CC=CC(=O)[C@@]1(C)CCC(=O)C2`, the TGI is more than 100 µM. The same measure, in the same setting: with `CC(=O)Oc1cc2c(cc1OC(C)=O)C1(C)CCC2(C)c2cc(OC(C)=O)c(OC(C)=O)cc21` the figure was 28.8 µM. The same measure, in the same setting: as for `CCCC1(CC(=O)O)OCCc2c1[nH]c1ccccc21` (configuration not stated), the figure is more than 100 µM. Same read-out and setting: as for `COc1ccc2nc3cc(Cl)ccc3c(Sc3ccc([N+](=O)[O-])cc3C)c2c1`, the figure is more than 100 µM.

A further assay concerns M14 melanoma. Put plainly: inhibition of tumour cell growth, NCI panel, 48 h.
The molecule `CCC1=CCN(c2cc(C)ccn2)OC1c1ccc(OC)cc1` (configuration not stated) registered a TGI of more than 100 µM. In turn, `CC(=O)Oc1c(C)c(-c2ccccc2)c(C)c(-c2ccccc2)c1C(=S)c1ccccc1` registered a TGI of more than 100 µM. Regarding `N#CCC(=O)N/N=C1/C(=O)N(c2ccc(Cl)cc2)C(=O)C(=O)C1c1nc2ccccc2s1` (configuration not stated), the TGI was more than 100 µM. Same read-out and setting: as for `CCCCCCCCCCCC(=O)OCCOCCOCCOCCOCCOC(=O)CCCCCCCCCCC`, the figure is more than 100 µM; as for `COc1ccc(C=O)cc1O[Si](C)(C)C(C)(C)C`, more than 100 µM; as for `CC1(O)C(C)(O)C2(C)O[Te]3(OC12C)OC1(C)C(C)(O)C(C)(O)C1(C)O3` (configuration not stated), more than 100 µM. Molecule `O=C1COc2cc(NC(=S)Nc3ccccc3)ccc2N1` displayed a TGI of more than 100 µM.

With `O=S(=O)(C1=CC(S(=O)(=O)c2ccccc2)CN(Cc2ccccc2)C1c1cccc2ccccc12)c1ccccc1` (configuration not stated), the TGI is more than 69 µM. Still for that read-out and setting: with `O=C1C=C(Nc2ccccc2C(=O)CC(=O)C(=O)Nc2cccc([N+](=O)[O-])c2)c2ccccc2C1=O` the figure was more than 100 µM; with `O=C(Nc1ccc(Cl)cc1)C1C(=O)C(=O)N(c2ccc(Cl)cc2)C1=O` (configuration not stated), more than 100 µM. For the molecule `CCC[CH2][Sn]([CH2]CCC)([O]C(=O)CN)[O]C(=O)CN`, the GI50 is 36.7 µM and the TGI is more than 100 µM. In the same order, the values of `COc1ccc2c(c1)C(=O)CCc1cc(OC)c(OC)c(OC)c1-2` are less than 0.01 µM and more than 100 µM. `O=C(Nc1ccc(C(F)(F)F)cc1[N+](=O)[O-])C(=O)C1NC(=S)NC1=O` (configuration not stated): the TGI was more than 100 µM.

`COc1cc(NCC(C#N)C#N)ccc1N=Nc1ccc(Cl)cc1` showed a TGI of 33.5 µM.

On to `CC(=O)c1ccc(NC(=O)/C(CC(=O)c2sc(-c3cccnc3)nc2C)=N/NC(N)=O)cc1`, for which the TGI was more than 100 µM. The same measure, in the same setting: with `Cc1ccc(S(=O)(=O)OC2CC=CC2)cc1` the figure was more than 100 µM. Regarding `COc1ccc2c(c1)OC1=C(C(=O)OC1)C2c1cc(OC)c2c(c1)OCCO2` (configuration not stated), the GI50 was 0.0566 µM and the TGI was more than 100 µM. Consider `C=CC[P@]1(=O)O[C@H](c2ccccc2)[C@H](C)N1C`, for which the TGI is more than 100 µM. Same read-out and setting: as for `O=C(Nc1cccc(O)c1)C(=O)C1C(=O)NC(=S)NC1=O`, the figure is more than 100 µM.

With `O=C1N/C(=C\[N+](=O)[O-])c2ccccc21`, the TGI was more than 100 µM.

For `CCN(CC)CCNC(Cc1ccccc1)c1ccc(OCc2ccccc2)cc1` (configuration not stated), the GI50 is 2.07 µM and the TGI came to 5.09 µM. Regarding `COC(=O)C(=O)CC(=O)CCn1[nH]c(=O)c(Cl)c(Cl)c1=O`, the TGI was more than 100 µM. The same measure, in the same setting: with `OCC12C=CC(C1)c1ccccc12` (configuration not stated) the figure was more than 100 µM; with `CCOC1C(Br)Cn2c(=O)c3cc4ccccc4cc3c(=O)n2C1C` (configuration not stated), more than 100 µM.
